In patent US20260256753A1, “USE OF AN OREXIN 2 RECEPTOR AGONIST FOR IMPROVING RESPIRATORY FUNCTION DURING SLEEP” (TAKEDA PHARMACEUTICAL COMPANY LIMITED, priority 2023, published 2026):

Experiments:
genioglossus muscle = experiment: EMG recording of the genioglossus muscle in anesthetized rats; assay type: in vivo, rat; settings: 1 mg/kg intravenous, 10 min after administration, versus vehicle, FIG. 5
Protocol: EMG recording of the genioglossus muscle was conducted as described previously (G. H. Zhang, et al.) with slight modifications. Rats were anaesthetized with urethane (2.0 g/kg, intraperitoneal injection). Anesthetic depth was assessed by the reflex responses to paw pinches. The tail vein was cannulated for intravenous drug administration. Each rat was laid on a servo-controlled electric heating pad. The body temperature of the rat was monitored with a rectal probe of the pad and kept at around 37° C. […] After 10 min of baseline recording, vehicle (0.1% [w/v] Polysorbate 80 and 20% [w/v] Captisol solution) or Compound C was administered intravenously and then EMG was recorded for 10 min. EMG was amplified 1,000-fold, band-pass filtered (100-5,000 Hz) using Microelectrode AC Amplifier (Model 1800; A-M systems, Carlsborg, WA, USA), digitized using AD converter (Power 1401; Cambridge Electronic Design, Cambridge, UK), recorded using Spike2 software (Cambridge Electronic Design), and then rectified and integrated with a time constant decay (100 ms) using LabChart software (AD Instruments). […] Bursts were then automatically detected, and burst amplitude was measured. […]

[1] = Plasma concentration of Compound C after intravenous and oral administration in rats; assay type: in vivo, rat; settings: intravenous 0.3 and 1 mg/kg versus oral 3 and 10 mg/kg, respectively
Protocol: Due to technical feasibility of the experiment, anesthetized rats were used for EMG recording of the diaphragm. Compound C was administered intravenously to anesthetized rats in this experiment. To understand the relationship between the plasma effective concentration of Compound C for arousal and that for activation of the diaphragm, plasma concentration of Compound C after intravenous administration was measured. The maximum plasma concentrations of Compound C after intravenous administration at 0.3 and 1 mg/kg were similar to those after oral administration at 3 and 10 mg/kg, respectively.

maximum plasma concentrations after intravenous administration compared with oral administration [1]: similar
SMILES: CC(C)(O)C(=O)N1CC(F)(F)[C@H](NS(C)(=O)=O)[C@@H]1Cc1cccc(-c2cc(F)cc(F)c2)c1F [Compound C, N-{(2S,3R)-4,4-difluoro-1-(2-hydroxy-2-methylpropanoyl)-2-[(2,3′,5′-trifluoro[1,1′-biphenyl]-3-yl)methyl]pyrrolidin-3-yl}methanesulfonamide]
burst amplitude of the genioglossus muscle (genioglossus muscle): significantly increased burst amplitude
